Test in all cases: NCI-60 cell line screen, 48 h
For experiment [1], the system named is SK-OV-3 ovarian.
The subject of experiment [2] is SF-268 CNS.
Experiment [3] concerns SN12C renal.
In experiment [4] the test system is UO-31 renal.
The test system of experiment [5] is MALME-3M melanoma.
The subject of experiment [6] is A498 renal.
The test system of experiment [7] is KM12 colon.
In experiment [8] the test system is HL-60(TB) leukemia.
Experiment [9] has as its system SK-MEL-5 melanoma.
The test system of experiment [10] is HCC-2998 colon.

Values joined by “and” are separate entries in the source; they are usually repeats but may differ in a detail not shown here. Equal entries are not always repeated.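 Each compound was tested at five concentrations against cells in 96-well plates for 48 hours. Abbreviation: GI50, concentration required for 50% inhibition of growth. TGI denotes the concentration required for complete inhibition of growth.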

For the molecule `O=C(Nc1cccc(-n2cc(-c3ccncc3)c(-c3ccc(O)c(Cl)c3)n2)c1)c1ccc2c(c1)OCCO2`, the GI50 is more than 100 µM in experiment [1]; more than 100 µM in experiment [2]; 55.7 µM in experiment [3]; 4.03 µM in [4]; more than 100 µM in experiment [5]; more than 100 µM in experiment [6]. Moreover, the GI50 in experiment [7] is 4.83 µM; in experiment [8], 4.54 µM; in [9], 3.95 µM; in experiment [10] it was more than 100 µM. The TGI in experiment [1], in experiment [2], in experiment [3], in experiment [4], in experiment [5] and in experiment [6] was more than 100 µM throughout. The TGI in [7], in experiment [8], in [9] and in experiment [10] was more than 100 µM throughout.

For the molecule `O=C(O)[C@@H]1OCCOCCO[C@@H](C(=O)O)[C@H](C(=O)O)OCCOCCO[C@H]1C(=O)O`, the TGI in experiment [1], in [2], in experiment [3], in experiment [4], in [5] and in [6] was more than 100 µM each time. Also, the TGI in experiment [7] was more than 100 µM; in experiment [8], 38.4 µM; in experiment [9] it was more than 100 µM; in experiment [10], more than 100 µM.

With `CCOC(=O)Nc1nc2ccccc2[nH]1`, the GI50 was 4.69 µM and 4.19 µM in experiment [1]; more than 100 µM in experiment [2]; 5.8 µM and 5.34 µM in experiment [4]; 5.18 µM in experiment [5]; 2.42 µM and 3.81 µM in experiment [6]; 5.16 µM and 2.96 µM in experiment [7]. Moreover, the GI50 in [8] was 2.64 µM and 2.02 µM; in experiment [9], 3.5 µM and 2.55 µM; in [10], 19.8 µM and 95.3 µM. In addition, the TGI in experiment [1] is more than 100 µM; in experiment [2] it was more than 100 µM; in experiment [3], more than 100 µM; in experiment [4], more than 100 µM; in experiment [5], more than 100 µM; in [6], more than 28.8 µM. Moreover, the TGI in experiment [7] was more than 100 µM; in experiment [8], 6.64 µM and > 20.1 µM; in experiment [9], more than 100 µM; in [10], more than 100 µM.

For `CNCC/C=C1\c2cc3c(cc2-c2c1c1cc(OC)c(OC)cc1c(=O)n2C)OCO3`, the GI50 in experiment [1] is 3.28 µM; in [2], 0.992 µM; in [3], 0.207 µM; in experiment [4] it was 0.548 µM; in experiment [5] it was 0.419 µM; in experiment [6], 2.97 µM. The GI50 was less than 0.0507 µM in [7], 0.239 µM in [8], 0.548 µM in [9] and 3.41 µM in [10]. The TGI was 23.6 µM in experiment [1]; 25.1 µM in experiment [2]; 6.06 µM in experiment [3]; more than 100 µM in experiment [4]; 4.59 µM in experiment [5]; 12 µM in experiment [6]. For the same molecule, the TGI came out at 0.504 µM in experiment [7], 2.57 µM in experiment [8], 2.89 µM in experiment [9] and 33.6 µM in [10].

As for `N#Cc1ccc(/C=C(/C(=O)c2ccccc2)c2ccccc2)cc1`, the TGI in experiment [1] is more than 54.6 µM; in [2], 41.1 µM; in [3] it was 25 µM; in [4] it was 28.9 µM; in [5] it was 29.1 µM; in [6], 40 µM. For the same molecule, the TGI amounted to 10.1 µM in [7], 9.81 µM in experiment [8], 26.8 µM in experiment [9] and 30.6 µM in experiment [10].
